Calls of active or inactive are those of the source.
Assays:
[1] = inhibitors of intracellular T. cruzi replication, confirmation, NIH3T3 host cells, beta-gal luminescence (AID 2044); format: functional, cell-based;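 note: intracellular parasites grown in NIH/3T3 mouse fibroblasts as host cells; luminescent beta-galactosidase reporter signal from transgenic T. cruzi replicating inside host cells; inhibitors lower the luminescence signal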
[2] = cytotoxicity toward NIH3T3 fibroblasts, dose response, counter-screen, cell-based, ATP luminescence, mouse fibroblasts (AID 2010); format: functional;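 note: cells exposed to compound for about 90 hours before reading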
[3] = THP-1 cell cytotoxicity, dose response, cytotoxicity control for non-replicating M. tuberculosis project (AID 489025); format: functional
cells [4] = format: functional
cells [5] = test: cells
Leucine aminopeptidase = molecular target: T1, Leucine aminopeptidase (Plasmodium falciparum 3D7, UniProt Q8IL11); test: P. falciparum M17LAP inhibitors, primary screen, biochemical, fluorogenic H-Leu-NHMec substrate, 1536-well (AID 1619); format: functional
T1 sequence (Q8IL11 whole entry): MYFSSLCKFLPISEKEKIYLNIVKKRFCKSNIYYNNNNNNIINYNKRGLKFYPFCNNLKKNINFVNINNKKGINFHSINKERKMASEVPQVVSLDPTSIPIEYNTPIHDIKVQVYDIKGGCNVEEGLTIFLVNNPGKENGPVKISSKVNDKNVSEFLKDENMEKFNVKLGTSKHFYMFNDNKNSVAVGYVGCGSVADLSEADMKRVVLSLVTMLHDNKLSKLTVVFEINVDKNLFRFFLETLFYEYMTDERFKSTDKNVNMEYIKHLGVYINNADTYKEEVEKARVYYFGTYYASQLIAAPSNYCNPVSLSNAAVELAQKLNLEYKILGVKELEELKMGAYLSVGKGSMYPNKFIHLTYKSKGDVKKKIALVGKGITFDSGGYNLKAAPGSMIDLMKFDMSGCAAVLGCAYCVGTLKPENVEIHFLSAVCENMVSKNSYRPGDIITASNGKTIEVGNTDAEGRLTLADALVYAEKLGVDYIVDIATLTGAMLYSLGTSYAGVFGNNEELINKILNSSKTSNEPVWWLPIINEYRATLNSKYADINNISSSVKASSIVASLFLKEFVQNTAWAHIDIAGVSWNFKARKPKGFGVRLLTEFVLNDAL

Large T antigen = Large T antigen (Simian virus 40, UniProt P03070); format: functional, Betapolyomavirus macacae;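 note: Confirmatory-stage PubChem screen for compounds that inhibit SV40 T antigen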
HEK293 = test: inhibitors of LMP1-driven NF-kB reporter, dose response, cell-based, HEK293, luciferase, cherry-pick (AID 588343); format: functional; conditions: Homo sapiens
[6] = molecular target: T2, Latent membrane protein 1 (Human herpesvirus 4 (strain B95-8), UniProt P03230); test: TES1-eGFP NF-kB reporter inhibition versus Tet-On dsRED, dose response, selectivity assay for LMP1 NF-kB inhibitor project, imaging, HEK293T, dual-color eGFP/dsRED, cherry-picks (AID 588398); format: functional, cell-based
T2 sequence (P03230 whole entry): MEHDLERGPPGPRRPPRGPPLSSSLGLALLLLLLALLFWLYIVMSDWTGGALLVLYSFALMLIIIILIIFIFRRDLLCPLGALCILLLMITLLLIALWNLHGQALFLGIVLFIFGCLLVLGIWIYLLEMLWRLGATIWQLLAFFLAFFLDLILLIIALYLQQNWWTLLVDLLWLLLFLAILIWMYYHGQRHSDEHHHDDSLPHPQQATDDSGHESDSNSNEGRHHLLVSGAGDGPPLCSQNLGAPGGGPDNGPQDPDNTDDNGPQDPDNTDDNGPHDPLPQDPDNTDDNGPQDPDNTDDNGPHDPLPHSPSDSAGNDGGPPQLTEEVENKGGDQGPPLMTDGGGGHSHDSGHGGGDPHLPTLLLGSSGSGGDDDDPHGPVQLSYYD

[7] = inhibitors of HIV Env-driven cell fusion, dose response, cherry-pick (AID 652057); format: functional, cell-based
[8] = CEM21 lymphoblast cell cytotoxicity, dose response, cytotoxicity control for viral fusion inhibitor project, CellTiter-Glo luminescence, cherry-picked (AID 652042); format: functional, cell-based;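 note: potency for signal decrease meaning cytotoxicity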
[9] = ZM109 Env clade C HIV-1 fusion inhibitors, dose response, HeLa effector, CEM target cells, luciferase, cherry-pick (AID 652058); format: functional, cell-based
[10] = off-target signal loss in HeLa-CEM21 co-culture – HeLa F-luc CTL cells, cherry-picked, counter-screen for HIV-1 Env fusion inhibitor project, dose response (AID 652040); format: functional, cell-based;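 note: potency for signal decrease marking cytotoxic or nonspecific inhibition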
[11] = inhibitors of clade B AD8 Env fusion, dose response, cell-based, cherry-pick (AID 652062); format: functional;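 note: luciferase signal from cell-cell fusion driven by HIV-1 clade B AD8 Env; potency is for inhibitors of fusion seen as a drop in luminescence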
[12] = molecular target: T3, DNA repair protein RAD52 homolog (Homo sapiens, UniProt P43351); format: functional, biochemical
T3 sequence (P43351 whole entry): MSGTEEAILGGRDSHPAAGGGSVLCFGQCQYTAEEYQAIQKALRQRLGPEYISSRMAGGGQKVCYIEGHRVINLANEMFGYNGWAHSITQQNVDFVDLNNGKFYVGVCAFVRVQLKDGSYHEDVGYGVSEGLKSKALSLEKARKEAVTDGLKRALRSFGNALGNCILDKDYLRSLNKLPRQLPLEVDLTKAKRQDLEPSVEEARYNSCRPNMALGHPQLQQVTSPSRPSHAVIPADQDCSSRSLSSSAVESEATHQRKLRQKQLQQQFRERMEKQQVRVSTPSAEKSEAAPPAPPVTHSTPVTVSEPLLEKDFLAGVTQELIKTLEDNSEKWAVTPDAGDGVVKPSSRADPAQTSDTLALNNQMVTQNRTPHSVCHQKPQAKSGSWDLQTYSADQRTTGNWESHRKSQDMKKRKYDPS

[13] = NIH-3T3 fibroblast cytotoxicity, dose response, cytotoxicity control, cell-based, fluorescence, Alamar Blue, secondary assay (AID 2327); format: functional;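 note: NIH-3T3 mouse fibroblasts cultured with fluconazole at 8 µg/mL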
[14] = Luminescence Cell-Based Dose Confirmation HTS to Identify Activators of 5'UTR Stem-Loop Driven Alpha-Synuclein mRNA Translation in H4 Neuroglioblastoma Cells. [Related pubchem assays: 1829 (Project Summary), 1814 (Primary HTS)]; format: functional
[15] = Luminescence Cell-Based Dose Response HTS to Identify Activators of Luciferase Translation or Activity in H4 […] Cells. [Related pubchem assays: 1829 (Project Summary), 1814 (Primary HTS)]; format: functional
H4 = test: Luminescence Cell-Based Dose Response HTS to Identify Activators of 5'UTR Stem-Loop Driven Prion Protein mRNA Translation in H4 Neuroglioblastoma Cells. [Related pubchem assays: 1829 (Project Summary), 1814 (Primary HTS)]; format: functional; conditions: Homo sapiens
[16] = C. albicans growth with fluconazole, confirmation, fluorescence, retest (AID 2467); format: functional, cell-based
[17] = cytotoxicity in HEK-293T cells, dose response, cytotoxicity control for BCR NF-kB inhibitor project, luminescence, B-cell screen hits (AID 489021); format: functional, cell-based;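 note: HEK-293T cells carrying an NF-kB luciferase reporter; cells exposed to compound for about 14 hours before viability readout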
INS1 = test: beta cell apoptosis inhibitors, cytokine rescue, dose response, luminescence, retest (AID 449756); format: functional, cell-based; conditions: Rattus norvegicus;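 note: cell death triggered by IL-1 beta plus TNF-alpha plus IFN-gamma mixture; protective hits raise ATP signal compared with cytokine alone wells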
[18] = molecular target: Induced myeloid leukemia cell differentiation protein Mcl-1 (Homo sapiens, UniProt Q07820); format: functional
[19] = molecular target: Eukaryotic translation initiation factor 4E (Mus musculus, UniProt P63073); test: eIF4E–eIF4G protein interaction inhibitors, dose response, biochemical, TR-FRET (AID 855); format: functional;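 note: potency for disrupting eIF4E binding to eIF4GI seen as loss of FRET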
[20] = HEp-2 cell cytotoxicity, dose response, cytotoxicity control for RSV inhibitor project, HTS (AID 2410); format: functional; conditions: human respiratory syncytial virus
cells [21] = test: cells; remark: listed apart in the source
[22] = molecular target: T4, Heat shock factor protein 1 (Mus musculus, UniProt P38532); test: inhibition of MG132-induced HSE-luciferase signal, confirmation, cell-based, NIH3T3, luminescence, dose retest (AID 2382); format: functional;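 note: NIH3T3 fibroblasts with HSF1-driven luciferase reporter stressed by proteasome inhibitor MG132; luminescence from HSF1-driven luciferase expression after 8 hours of MG132 stress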
T4 sequence (P38532 whole entry): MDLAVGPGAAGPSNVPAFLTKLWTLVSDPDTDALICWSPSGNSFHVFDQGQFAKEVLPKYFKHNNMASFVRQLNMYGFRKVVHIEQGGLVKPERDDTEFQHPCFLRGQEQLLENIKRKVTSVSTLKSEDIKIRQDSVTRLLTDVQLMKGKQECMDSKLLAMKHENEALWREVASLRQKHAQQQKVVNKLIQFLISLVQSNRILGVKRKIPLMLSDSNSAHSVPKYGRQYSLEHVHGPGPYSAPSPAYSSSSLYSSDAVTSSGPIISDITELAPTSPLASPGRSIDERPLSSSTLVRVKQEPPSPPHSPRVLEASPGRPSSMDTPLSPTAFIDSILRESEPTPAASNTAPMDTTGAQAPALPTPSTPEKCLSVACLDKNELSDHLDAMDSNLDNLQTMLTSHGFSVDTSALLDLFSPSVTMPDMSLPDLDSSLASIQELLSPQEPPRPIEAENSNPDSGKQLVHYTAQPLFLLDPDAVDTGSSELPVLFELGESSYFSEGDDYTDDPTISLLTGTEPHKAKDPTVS

Vero = test: cells; format: functional, cell-based; conditions: Chlorocebus sabaeus
[23] = non-specific cell cytotoxicity, dose response, cytotoxicity control for PAX8 inhibitor project, plate reader, dry powder samples (AID 743021); format: functional, cell-based

Chain of Eukaryotic translation initiation factor 4E (P63073 whole entry): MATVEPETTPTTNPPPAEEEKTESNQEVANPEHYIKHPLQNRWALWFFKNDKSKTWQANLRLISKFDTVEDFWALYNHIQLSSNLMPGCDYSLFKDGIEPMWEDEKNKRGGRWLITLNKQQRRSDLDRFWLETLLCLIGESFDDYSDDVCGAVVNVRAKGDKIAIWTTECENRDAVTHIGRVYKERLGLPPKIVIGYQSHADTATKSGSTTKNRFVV
Chain of Large T antigen (P03070 whole entry): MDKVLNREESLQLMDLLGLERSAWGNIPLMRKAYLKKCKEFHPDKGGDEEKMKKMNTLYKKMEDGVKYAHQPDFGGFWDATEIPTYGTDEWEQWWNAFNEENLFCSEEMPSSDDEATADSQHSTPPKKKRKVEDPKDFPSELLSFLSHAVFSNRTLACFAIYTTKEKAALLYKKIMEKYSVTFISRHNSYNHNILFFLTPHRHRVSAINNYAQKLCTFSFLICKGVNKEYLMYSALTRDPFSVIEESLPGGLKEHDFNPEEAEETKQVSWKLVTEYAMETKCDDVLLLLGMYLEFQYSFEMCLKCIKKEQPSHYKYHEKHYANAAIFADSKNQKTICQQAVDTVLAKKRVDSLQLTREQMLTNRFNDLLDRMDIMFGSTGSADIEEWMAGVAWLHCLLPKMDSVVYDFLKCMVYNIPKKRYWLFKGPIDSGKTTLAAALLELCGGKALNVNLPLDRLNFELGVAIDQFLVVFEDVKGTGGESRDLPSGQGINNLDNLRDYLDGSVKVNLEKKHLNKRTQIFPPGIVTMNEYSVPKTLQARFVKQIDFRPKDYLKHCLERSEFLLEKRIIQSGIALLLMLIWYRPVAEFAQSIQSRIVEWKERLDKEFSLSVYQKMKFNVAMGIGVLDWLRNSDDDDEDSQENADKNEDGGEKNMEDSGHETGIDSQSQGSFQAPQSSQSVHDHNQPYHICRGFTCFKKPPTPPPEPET
Chain of Induced myeloid leukemia cell differentiation protein Mcl-1 (Q07820 whole entry): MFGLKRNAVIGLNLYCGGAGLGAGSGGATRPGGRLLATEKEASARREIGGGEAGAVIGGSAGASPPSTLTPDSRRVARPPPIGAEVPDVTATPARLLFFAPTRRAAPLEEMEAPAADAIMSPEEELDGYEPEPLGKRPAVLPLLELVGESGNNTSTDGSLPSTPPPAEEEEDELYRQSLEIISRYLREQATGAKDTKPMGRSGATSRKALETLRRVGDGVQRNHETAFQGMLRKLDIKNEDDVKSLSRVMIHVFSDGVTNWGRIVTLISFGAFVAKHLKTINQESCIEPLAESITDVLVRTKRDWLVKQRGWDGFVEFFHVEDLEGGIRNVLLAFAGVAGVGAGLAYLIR

SMILES: C=CCc1cc(Cl)ccc1OCCCn1ccnc1
- EC50 [1]: 2.12 µM (active)
- EC50 [2]: > 60 µM (not active)
- CC50 [3]: > 40 µM (active)
- IC50 (cells [4]): 16.7 µM (active)

SMILES: COc1cc(CN2CCCC(CCC(=O)NCc3ccc(C)o3)C2)cc2c1OCO2 (configuration not stated)
- EC50 [1]: < 0.1 µM (active)
- EC50 [2]: > 60 µM (not active)
- EC50 (cells [5]): 0.015 µM (active)

SMILES: O=C(O)/C=C/C(=O)Nc1ccc(Oc2ccc(NC(=O)/C=C/C(=O)O)cc2)cc1
- IC50 (Leucine aminopeptidase): 14.8 µM (active)
- IC50 (Large T antigen): > 100 µM (active)

SMILES: CNc1cccnc1C=NNC(N)=S
- AC50 (HEK293): 2.43 µM (active)
- AC50 [6]: 6.42 µM (active)
- AC50 [7]: 0.457 µM (active)
- AC50 [8]: 5.69 µM (active)
- AC50 [9]: 0.805 µM (active)
- AC50 [10]: 9.89 µM (active)
- AC50 [11]: 1.94 µM (active)

SMILES: Cc1ccc(C)c(NC(=O)C2CC(Cl)=CCC2C(=O)O)c1 (configuration not stated)
- IC50 (Leucine aminopeptidase): 18.6 µM (active)

SMILES: CCCCN1C(=O)C(O)(c2ccccc2)c2cc(Br)ccc21 (configuration not stated)
- AC50 [7]: 4.89 µM (active)
- AC50 [8]: 48.2 µM (active)
- AC50 [9]: 4.73 µM (active)
- AC50 [10]: 6.01 µM (active)
- AC50 [11]: 7.82 µM (active)

SMILES: Cc1ccc(SCCOCCN2CC(C)OC(C)C2)cc1 (configuration not stated)
- EC50 [1]: < 0.1 µM (active)
- EC50 [2]: > 60 µM (not active)
- EC50 (cells [5]): 0.007 µM (active)

SMILES: CC(=O)c1ccc(Nc2nc(C(N)Cc3ccc(N)cc3)cs2)cc1 (configuration not stated)
- AC50 [12]: 30.4 µM (active)

SMILES: Cc1ncc(CN2CCCC(CCC(=O)NCc3ccc(F)c(F)c3)C2)s1 (configuration not stated)
- EC50 [1]: < 0.1 µM (active)
- EC50 [2]: > 60 µM (inconclusive)
- EC50 (cells [5]): 0.14 µM (active)

SMILES: COc1ccc(-[n+]2c(-c3ccc(Br)cc3)cn3c2CCc2ccccc2-3)cc1
- EC50 [13]: > 160 µM (inactive)
- EC50 [14]: > 120 µM (not active)
- EC50 [15]: > 120 µM (not active)
- EC50 (H4): > 120 µM (not active)
- EC50 [16]: 1.62 µM (active)
- EC50 [1]: 0.424 µM (active)
- EC50 [2]: > 30 µM (not active)
- IC50 [17]: > 80 µM (inactive)
- AC50 (INS1): 2.15 µM (active)

SMILES: Cc1nc(Nc2c(Cl)cccc2Cl)sc1C(=O)Nc1ccccc1
- IC50 [17]: > 80 µM (inactive)

SMILES: COC(=O)[C@]12C[C@H](CC(=O)NCc3cccs3)C(=O)N(CCC3=CCCCC3)C1=C[C@H](C(C)(C)C)O[C@@H]2C
- AC50 [7]: 1.18 µM (active)
- AC50 [8]: 51.6 µM (active)
- AC50 [9]: 1.91 µM (active)
- AC50 [10]: 1.72 µM (active)
- AC50 [11]: 5.01 µM (active)

SMILES: CC(=O)Nc1ccc(C(=O)Nc2cccc(-c3cnc4ccccc4n3)c2)cc1
- IC50 [18]: 25.5 µM (not active)
- IC50 [19]: 50 µM (inactive)

SMILES: COc1ccc(C2(O)CCN(CC(=O)Nc3nc(-c4ccccc4)cs3)CC2)cc1
- CC50 [3]: > 40 µM (active)
- IC50 (cells [4]): 16.7 µM (active)

SMILES: COc1ccc(CCOC(=O)c2ccc(NC(=O)CC#N)cc2)cc1
- CC50 [20]: > 50 µM (active)
- IC50 (cells [21]): 9.43 µM (active)

SMILES: COc1ccc(OCc2cccc(C(=O)NN)c2)cc1
- IC50 [17]: > 80 µM (inactive)
- AC50 (HEK293): 3.57 µM (active)

SMILES: COc1ccc(S(=O)(=O)N2CCN(CCO)CC2)cc1-c1nnc2c3ccccc3c(C)nn12
- EC50 [22]: > 195 µM (not active)
- IC50 (cells [21]): 4.08 µM (active)

SMILES: O=C(O)C1CC=CCC1C(=O)Nc1ccc(S(=O)(=O)N2CCCc3ccccc32)cc1 (configuration not stated)
- CC50 [20]: 15.7 µM (active)
- IC50 (Vero): 16.4 µM (active)
- IC50 (cells [21]): 2.91 µM (active)

SMILES: CC(NC(=O)CSc1nnc(CC(=O)Nc2ccc(Cl)c(Cl)c2)n1C)c1ccccc1 (configuration not stated)
- IC50 [19]: > 64 µM (inactive)

SMILES: COC(=O)CSc1nnc(-c2sc3ccccc3c2Cl)o1
- IC50 [17]: > 80 µM (inactive)

SMILES: O=C(O)CSc1ccccn1
- IC50 [19]: > 64 µM (inactive)

SMILES: CCOc1ccc2ccccc2c1/C=N\NC(=O)OC
- AC50 [23]: 48.5 µM (active)

SMILES: C[C@]12CC[C@H](O)CC1=CCC1C2CC[C@@]2(C)C1CC[C@@H]2NC(=O)[C@@H](N)Cc1c[nH]cn1 (some centres not stated)
- AC50 [12]: 0.952 µM (active)

— ChEMBL document CHEMBL1201862, “PubChem BioAssay data set” (2004)
